We go through four molecules from PubChem BioAssay AID378.

This experiment addresses L-aminoadipate-semialdehyde dehydrogenase-phosphopantetheinyl transferase (Homo sapiens) (UniProt Q9NRN7). Nature of the experiment: PubChem AID 378. The settings on record: purified protein DSF, SYPRO orange Tm shift, at 10 µM, protein 2 µM, pH 5.5, hits give high values.
Setting [1] is: buffer 10 mM NaH2PO4, NaCl 150 mM, MgCl2 2000 µM.
Setting [2] is: buffer 10 mM NaHPO4, with 150 mM NaCl, 2 mM MgCl2.

Chain of L-aminoadipate-semialdehyde dehydrogenase-phosphopantetheinyl transferase (Homo sapiens) (Q9NRN7 whole entry, looked up): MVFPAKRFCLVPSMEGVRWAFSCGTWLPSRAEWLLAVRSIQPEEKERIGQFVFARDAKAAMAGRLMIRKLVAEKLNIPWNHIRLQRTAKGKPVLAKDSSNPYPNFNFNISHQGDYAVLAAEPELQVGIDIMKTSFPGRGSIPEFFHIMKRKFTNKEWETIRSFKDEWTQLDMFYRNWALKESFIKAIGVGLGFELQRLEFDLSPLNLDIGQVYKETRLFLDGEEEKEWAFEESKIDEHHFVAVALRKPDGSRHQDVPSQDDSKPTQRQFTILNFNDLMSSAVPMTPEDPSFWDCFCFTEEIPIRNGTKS

As to `CC(C)(COP(=O)(O)OP(=O)(O)OCC1OC(n2cnc3c(N)ncnc32)C(O)C1OP(=O)(O)O)C(O)C(=O)NCCC(=O)NCCS` (centres undefined), the Tm shift under setting [1] is 2.9 Celsius.

On to `O=[P+](O)C(O)(Cc1cccnc1)P(=O)(O)O` (centres undefined), for which, under setting [2], the Tm shift is 4.4 Celsius.

For the molecule `O=P(O)(O)C(O)(Cn1ccnc1)P(=O)(O)O`, under setting [2], the Tm shift is 5.2 Celsius.

As to `CC(O)CC(=O)SCCNC(=O)CCNC(=O)C(O)C(C)(C)COP(=O)(O)OP(=O)(O)OCC1OC(n2cnc3c(N)ncnc32)C(O)C1OP(=O)(O)O` (centres undefined), the Tm shift under setting [1] is 3.1 Celsius.
